Measurements: PMC8026785, “The pharmacokinetics of [^18F]UCB-H revisited in the healthy non-human primate brain” (EJNMMI Research, 2021)

Key:
SV2A = biological target: T1, SV2A (Macaca fascicularis, UniProt Q4R4X3); assay: Displacement PET studies of [^18F]UCB-H; format: in vivo, cynomolgus monkeys (Macaca fascicularis); settings: about half of total uptake displaceable
T1 construct: The current study evaluates [^18F]UCB-H pharmacokinetics in healthy NHPs; from tissue; host or cells: brain of living healthy cynomolgus monkeys (in vivo PET)
T1 sequence (Q4R4X3 whole entry): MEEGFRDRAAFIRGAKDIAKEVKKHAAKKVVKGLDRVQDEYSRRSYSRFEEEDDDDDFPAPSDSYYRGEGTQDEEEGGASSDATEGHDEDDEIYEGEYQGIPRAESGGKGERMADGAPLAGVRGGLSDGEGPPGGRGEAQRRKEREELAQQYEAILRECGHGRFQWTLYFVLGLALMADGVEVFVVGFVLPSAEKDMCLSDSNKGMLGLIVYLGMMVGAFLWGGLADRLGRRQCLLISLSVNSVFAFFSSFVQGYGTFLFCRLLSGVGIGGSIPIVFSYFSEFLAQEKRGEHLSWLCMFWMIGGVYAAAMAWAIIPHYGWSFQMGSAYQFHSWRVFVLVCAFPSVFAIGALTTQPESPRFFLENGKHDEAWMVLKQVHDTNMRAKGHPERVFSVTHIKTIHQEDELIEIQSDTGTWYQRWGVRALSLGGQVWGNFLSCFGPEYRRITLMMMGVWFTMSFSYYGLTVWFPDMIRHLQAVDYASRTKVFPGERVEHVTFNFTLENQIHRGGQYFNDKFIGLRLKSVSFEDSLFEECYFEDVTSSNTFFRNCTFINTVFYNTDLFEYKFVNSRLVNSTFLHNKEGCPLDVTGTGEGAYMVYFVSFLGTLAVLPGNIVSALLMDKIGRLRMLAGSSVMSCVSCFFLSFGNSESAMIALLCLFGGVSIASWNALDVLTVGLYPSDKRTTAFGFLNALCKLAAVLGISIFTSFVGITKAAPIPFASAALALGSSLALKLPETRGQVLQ
Protocol: (§1) All four non-human primates (NHP) underwent a 2-h (2 h) test and retest PET scan; two NHP underwent an additional 4-h (4 h) retest PET scan. Three NHP underwent one 4-h (4 h) displacement PET scan. Arterial blood sampling was performed during test and retest scans with PET imaging spaced by at least 3 weeks between each scan. To this end, the femoral artery opposite to the saphenous vein used for radioligand injection was cannulated. For the 2-h (2 h) scans, we collected in total 28 blood samples of 1 mL: 16 samples during the first 5 min followed by […] every 5 min and […] every 10 min. For the 4 h scans, we collected an additional 6 samples every 20 min during the last two hours (34 samples in total). Larger samples (2 – 3 mL) were collected at 5, 15, 30, 60, 90, 120 min (2 h) and at 180, 240 min (4 h) for metabolite analysis. Displacement of [^18F]UCB-H was done by intravenous (IV) administration 90 min after [^18F]UCB-H injection of a bolus of 30 mg/kg LEV, or of 80 µg/kg (≈250 nmol/kg) or 5 mg/kg (≈15 µmol/kg) of cold [^19F]-UCB-H. Full experimental design of all NHP is outlined in Additional file 1: Table 1.
Solvents and LEV (C8H14N2O2; MM 170.21 g/mol) were obtained at Sigma-Aldrich® (France), and [^19F]-UCB-H (C16H12F4N2O; MM 324.28 g/mol) was synthesised as previously described. Injectable solutions of [^19F]-UCB-H for displacement studies were prepared with a mixture of Tetrahydrofuran (THF), Médialipide® and glucose at 2.5% as previously described. LEV was dissolved in a glucose solution of 2.5% to reach a concentration of 90 mg/mL.
PET image analysis was performed using PMOD software version 3.8 (PMOD Technologies Ltd., Zurich, Suisse). After individual co-registration of PET-MR images, a cynomolgus atlas published by Ballanger and coworkers was normalized to PET images to extract time activity curves in different brain regions. Volumes of interest (VOI) were cerebral white matter (16.7 cm^3), striatum (0.24 cm^3), thalamus (0.89 cm^3), cerebellum (3.83 cm^3), frontal—(2.50 cm^3), parietal—(5.35 cm^3), and temporal (8.22 cm^3) cortex, and whole brain (72.2 cm^3) as a composite region of all regions in the atlas. [^18F]UCB-H pharmacokinetics were evaluated by analyzing the time activity curves of the test- and retest scans using 1- and 2-tissue compartment models (unconstrained and constrained with global K1/k2 coupled fit across all regions, further referred to as 2TCM and 2TCM-c), and Logan graphical analysis with a fixed t* at 60 min [33] using the arterial plasma input function corrected for radio-metabolites to derive the volume of distribution in each region. Percentage standard error (%SE) was estimated from the theoretical parameter covariance matrix. Only reliable estimates (%SE less than 25%) were included in the current analyses. For the three drug studies, percent displacement of the total activity in the whole brain was estimated relative to an average baseline constructed from the two 4 h baseline studies. Briefly, Standardized Uptake Value (SUV) time activity curves (TACs) were calculated for the two baseline and the three displacement studies. Then, each curve was normalized to the SUV at t = 90 min, corresponding to the timeframe immediately before the administration of the drugs in the displacement studies. Baseline curves were averaged and the percent displacement of total activity was calculated as (baseline-displacement)/baseline at a given time post drug administration (see “Results”).

[1] = Plasma free fraction by ultrafiltration; format: in vitro ADME; settings: NHP plasma, before tracer injection
Protocol: The fraction of [^18F]UCB-H in NHP plasma samples not bound to plasma protein was measured before PET injection using a previously described ultrafiltration method. In brief, standard amounts of [^18F]UCB-H (≈15 kBq) were added to 200 μL plasma that was applied to Microcon® filtration devices containing an YM-10 membrane (Millipore, France). The devices were centrifuged for 10 min at 10,000 g (Sigma 2-16KL, France). [^18F]UCB-H activity concentration in the resulting ultrafiltrate (≈70 μL, CFP) and a sample of plasma (CP) were counted. The free fraction (fp) was calculated as: fp = CFP/CP and measured in triplicates.

[2] = Arterial blood sampling and radiometabolite analysis after i.v. [^18F]UCB-H; format: in vivo, cynomolgus monkeys (Macaca fascicularis); settings: for intact parent fraction: arterial blood
Protocol: as §1
Plasma was separated from whole-blood by centrifugation (5 min, 2054xg, 4 °C) and 50 µL of plasma and whole-blood were counted using a PET cross-calibrated gamma well counter (WIZARD^2, PerkinElmer, France) to obtain the whole-blood and plasma activity curves. All data were corrected for radioactive decay from the injection time. For the larger blood samples, 500 µL plasma was deproteinized with acetonitrile. The supernatant was injected in high-performance liquid chromatography, equipped with an Atlantis® T3 5 μm 4.6 × 150 mm column (Waters) and an Atlantis® T3 5 μm 3.9 × 5 mm pre-column (Waters), with an LB-513 radioactivity flow detector (Berthold, La Garenne Colombes, France, MX Z100 cell). The eluant was collected in intervals of 15 s (fraction collector III, Waters, France) and counted in the gamma well counter (WIZARD^2, PerkinElmer, France) to measure total activity. [^18F]UCB-H parent fraction was calculated as a percentage of the total radioactivity (metabolites and parent).
For each animal, a 2-exponential decay function was fitted to [^18F]UCB-H parent fraction, which was time multiplied with the plasma activity curve to obtain the metabolite-corrected arterial plasma input function (mcAIF) used for the kinetic modeling.

SMILES: O=C1C[C@H](c2cc(F)c(F)c(F)c2)CN1Cc1ccncc1[18F] [[^18F]UCB-H]
- BPND expected from maximum displacement (SV2A): ~1.0
- Plasma free parent fraction (fp) [1]: 42.6 ± 1.6%
- intact parent fraction ([2]; 15 min after tracer injection): 37 ± 3.9%
- intact parent fraction ([2]; 30 min after tracer injection): 29.5 ± 3.4%
- intact parent fraction ([2]; 60 min after tracer injection): 19 ± 3.5%
- intact parent fraction ([2]; 120 min after tracer injection): 14.6 ± 1.9%
- intact parent fraction ([2]; 240 min after tracer injection): 4.4 ± 0.7%
- plasma to whole-blood ratio ([2]; over the entire 120-min acquisition period): 0.90 ± 0.05
